Results reported in PMC5923171, “Novel Zinc-Attenuating Compounds as Potent Broad-Spectrum Antifungal Agents with In Vitro and In Vivo Efficacy” (Antimicrobial Agents and Chemotherapy, 2018).
≈ marks a conversion by molar mass, not a printed value. Where two headings read alike, the source gives them in different places.

Columns and labels:
[1] = test system: C. albicans SC5314; experiment: Antifungal susceptibility testing (MIC); type: cell-based, Candida albicans; conditions: at least 50% growth inhibition, RPMI, 24 h, 34°C
Protocol: Antifungal susceptibility testing was carried out as described previously ([38], [39]), with a few modifications. Briefly, for each yeast or mold growth inhibition assay, frozen stocks of yeast cells or spores were diluted to a final concentration of 0.5 × 10^5 to 2.5 × 10^5 CFU/ml in sterile water. ZAC989, ZAC307, and ZAC623 were dissolved in DMSO to 10 mM stocks from which half-log serial dilutions were prepared. Growth assays were subsequently performed by pipetting 3 μl of compound dissolved in DMSO (giving a final concentration of 1.5% DMSO), 100 μl of cell-spore suspension, and 97 μl of 2× RPMI medium (20.8 g/liter of RPMI 1640 medium, 69.06 g/liter of morpholinepropanesulfonic acid [MOPS], 36 g/liter of glucose) into a microtiter plate that was incubated for 24 h (yeasts) or 48 to 72 h (molds) at 34°C. Fungal growth was determined spectrophotometrically by optical density reading of each well at a wavelength of 492 nm on a Victor X5 (Perkin-Elmer) plate reader. […] Standard errors between repeated experiments were generally below 5%. The growth effect of exogenous addition of various divalent metals was evaluated by performing the antifungal susceptibility assay in the presence of 5 μM ZAC989 or ZAC307 and with increasing concentrations (0.003 to 50 μM) of ZnSO4, CuSO4, (NH4)2Fe(SO4)2, MgCl2, and CaCl2.

[2] = test system: ZafA target genes; experiment: RT-qPCR of ZafA target genes and genes not regulated by ZafA; type: cell-based, Aspergillus fumigatus; conditions: zinc-limiting conditions, 2 h; for expression levels of the genes not regulated by ZafA: 21 μg/ml ZAC307, 27 μg/ml ZAC989; for expression of the ZafA target genes: 21 μg/ml ZAC307, 27 μg/ml ZAC989, 146 μg/ml EDTA, 10.6 μg/ml TPEN
Protocol: A total of 1.5 × 10^6 conidia of the wild-type strain (AF14) were inoculated into 20 ml of 0.7× sRPMI, 0.05% Tween 20, and 1.2% ethanol dispensed into 100-ml culture flasks pretreated with an overnight wash in 2 mM EDTA (pH 8.0) to minimize the presence of metal traces, followed by a thorough washing with ultrapure Milli-Q water. The flasks were subsequently sterilized in an oven at 180°C. The cultures were incubated for 20 h at 37°C and 200 rpm before the following were added: (i) pure ethanol to a final concentration of 1.2% (vol/vol) (as a reference for the transcription profiles of all genes under zinc-limiting conditions), (ii) 1.2% ethanol plus a solution of ZnSO4 to a final concentration 20 μM zinc (as a reference for the transcription profiles of all genes under zinc-replete conditions following the zinc shift), (iii) 1.2% ethanol plus a solution of EDTA to a final concentration of 500 μM, (iv) 1.2% ethanol plus a solution of TPEN to a final concentration of 10.6 μg/ml, and (v) a 5 mM solution of each test compound (ZAC307 or ZAC989) dissolved in 80% ethanol to a final concentration of 75 μM and 1.2% ethanol (which correspond to 21 μg/ml and 27 μg/ml, respectively). After compound addition, cultures were incubated for 2 h at 37°C and 200 rpm and mycelia were harvested by filtration through filter paper, washed twice with sterile waterm and snap-frozen in liquid nitrogen. After grinding of the mycelia in the presence of liquid nitrogen, total RNA was extracted using an RNeasy plant minikit (74904; Qiagen) according to the manufacturer's instructions. RNA was eluted in 50 μl of RNase-free water. RNA integrity was verified on 0.8% agarose gels stained with ethidium bromide. RNA was stored at −80°C until use.
Total RNA concentration and quality were determined by UV spectrometry (NanoDrop ND1000 spectrophotometer; Thermo Fisher Scientific), and all samples were brought to a final concentration of 150 ng/μl. Total RNA (1.5 μg) was treated with RQ1 DNase I (M610; Promega) and subsequently assessed by conventional PCR for the complete absence of genomic DNA (gDNA). Subsequently, 1 μg of DNase-treated RNA was reversed transcribed using SuperScript II reverse transcriptase (18064-014; Invitrogen, Thermo Fisher Scientific), with random hexamers (11034731001; Roche Diagnostics) as primers. Prior to qPCRs, cDNA samples were diluted 1:3 in water, except in the case of reactions against the 18S rRNA, for which samples were diluted 1:1,200 in water. qPCRs were performed on a Bio-Rad CFX96 instrument. A typical qPCR mixture (10 μl) contained 13.5 ng of cDNA (32 pg when the qPCR was for 18S rRNA), a specific pair of primers (150 nM final concentration), and the SYBR premix Ex Taq (RR420A; TaKaRa). For all qPCRs, 40 cycles were performed using the following cycling conditions: denaturation at 95°C for 10 s, annealing at 59°C for 20 s, and extension at 72°C for 20 s. The relative expression ratio (rER) was calculated using the threshold cycle (2^−ΔΔCT) method ([42]) using the expression level of the 18S rRNA as an internal reference.

[3] = test system: C. albicans BWP17; experiment: Zinbo-5 assay (intracellular zinc); type: cell-based, Candida albicans; conditions: 9 μg/ml ZAC989, 7 μg/ml ZAC307 (25 μM), 15 μg/ml EDTA, 1.3 μg/ml TPEN; 1, 8 or 24 h
Protocol: C. albicans BWP17 was grown overnight in YPD medium at 30°C and 150 rpm. The cells were pelleted, washed in PBS buffer (D8537; Sigma) 3 times, and resuspended to an OD600 of 2.0. Two microliters of compound in DMSO was mixed with 100 μl of cell suspension and incubated statically for 1, 8, or 24 h at 30°C in a 96-well black plate. Thirty minutes before the end of the incubation period, 100 μl of 10 μM Zinbo-5 (sc-222425; Santa Cruz Biotechnology) in PBS buffer was added. […] The plate was then read on a plate reader (FLUOstar Optima; BMG Lab Technologies) with excitation at 355 nm and emission at 485 nm. The decrease in Zinbo-5 fluorescence was calculated relative to the untreated DMSO control.

[4] = Fluorescence-based competition assay using FluoZin-3 (compound-Zn2+ dissociation constant); type: binding; conditions: FluoZin-3 competition, PBS pH 7.4, room temperature; read-out: Compound-Zn^2+ KD
Protocol: The dissociation constant (Kd) of zinc to zinc-attenuating compounds was determined at room temperature using FluoZin-3 (F24194; […] Testing buffer consisted of PBS (pH 7.4) with 200 nM ZnCl2 and 500 nM FluoZin-3. In a microtiter plate, 98 μl of testing buffer was mixed with 2 μl of compound at a range of concentrations to determine the half-maximal inhibitory concentration (IC50). Testing plates were incubated for 2 min before being read at an excitation wavelength of 485 nm and an emission wavelength of 516 nm with a Fluoroskan Ascent microplate fluorometer (Thermo Fisher Scientific).

[5] = test system: C. albicans; experiment: Fungal growth recovery after prolonged exposure (MFC); type: cell-based, Candida albicans; conditions: for growth recovery after exposure: 5 days of exposure, then compound-free medium (EDTA: during compound incubation, 0.22 to 22 μg/ml)
[6] = Candida albicans, SC5314, 24 h, read-out: MIC

Row | SMILES | MIC [1, 6] [µg/mL] | MIC [1] [µg/mL] | expression levels of the genes not regulated by ZafA [2] | expression of the ZafA target genes [2] | Zinbo-5 fluorescence [3] | Kd [4] [nM] | growth recovery after exposure [5] | concentration above which exposed cells showed poor recovery ([5]; prolonged exposure)
1 | Cc1cc(O)n(-c2cc(N3CC[C@H](Oc4cnccc4C#N)C3)ncn2)n1 [ZAC989, 3-[(3S)-1-[6-(5-hydroxy-3-methyl-pyrazol-1-yl)pyrimidin-4-yl]pyrrolidin-3-yl]oxy-pyridine-4-carbonitrile] | 0.4 (≈ 1.1 µM) | 0.6 (≈ 1.65 µM) | did not have a noticeable effect | inhibited the expression of the ZafA target genes | time-dependent decrease in Zinbo-5 fluorescence | 13 | resume normal growth | –
2 | CN(C)c1cc(-n2nc(-c3ccccc3)cc2O)ncn1 [ZAC307, 2-[6-(dimethylamino)pyrimidin-4-yl]-5-phenyl-pyrazol-3-ol] | 0.4 (≈ 1.42 µM) | – | reduced expression levels for most of the investigated genes that were not regulated by ZafA | inhibited the expression of the ZafA target genes | decreased the Zinbo-5 fluorescence after only 1 h of incubation | 71 | resume normal growth | –
3 | O=C(O)CN(CCN(CC(=O)O)CC(=O)O)CC(=O)O [EDTA] | ~0.05 (≈ 0.171 µM) | – | – | upregulation of the most direct ZafA target genes | did not reduce the Zinbo-5 fluorescence | < 10 | resumed visible growth after 48 h of compound incubation | –
4 | c1ccc(CN(CCN(Cc2ccccn2)Cc2ccccn2)Cc2ccccn2)nc1 [TPEN, N,N,N’,N’-tetrakis(2-pyridylmethyl)-ethylenediamine] | ~0.05 (≈ 0.118 µM) | – | – | higher expression of the ZafA target genes than attained with EDTA | time-dependent decrease in Zinbo-5 fluorescence | < 10 | poor recovery | above 2 μg/ml
